Laboratory results as given in paper PMC6510372 (Clinical and Translational Science, 2019).
Entries after “also recorded” stand apart in the source; their conditions may differ.

Assays:
P-gp [1] = target: T1, P-gp (Homo sapiens, UniProt P08183); experiment: Study 006 cohort 2: effect of steady-state tezacaftor/ivacaftor on digoxin; format: in vivo; conditions: for CL renal: both, human, urine and plasma, oral
CYP3A [2] = experiment: Study 006 cohort 1: effect of itraconazole; format: in vivo, human; conditions: coadministration of itraconazole vs tezacaftor/ivacaftor alone
CYP3A [3] = experiment: Study 770-017: effect of ciprofloxacin; format: in vivo, human; conditions: ciprofloxacin 750 mg q12 h with tezacaftor 50 mg q12 h and ivacaftor 150 mg q12 h
CFTR = conditions: major circulating metabolites in humans; cited from earlier work
CYP3A [4] = experiment: Study 006 cohort 2: effect of steady-state tezacaftor/ivacaftor on midazolam; format: in vivo, human; conditions: midazolam 2.0 mg single dose with/without TEZ 100 mg q.d./IVA 150 mg q12 h, oral, fed, healthy subjects
CYP3A [5] = conditions: cited from earlier work
[6] = Steady-state PK of tezacaftor q.d./ivacaftor twice daily in patients with CF; format: in vivo; conditions: human, plasma, oral
[7] = cited from earlier work
[8] = cited from earlier work; for Food effect on exposure: fat‐containing food vs fasted state
CYP3A [9] = conditions: in vitro; cited from earlier work
[10] = system: permeability glycoprotein (P‐gp) efflux transporter; conditions: ref 3 (tezacaftor), ref 6 (ivacaftor); cited from earlier work
P-gp [11] = target: T1, P-gp; conditions: ivacaftor alone, digoxin as model P‐gp substrate; cited from earlier work
CYP3A [12] = conditions: cited from earlier work; remark: listed apart in the source
CYP3A [13] = conditions: human hepatocytes and recombinant human CYP; no reference given; cited from earlier work
[14] = digoxin with tezacaftor 100 mg q.d./ivacaftor 150 mg q12 h vs digoxin alone

T1 sequence (P08183 whole entry): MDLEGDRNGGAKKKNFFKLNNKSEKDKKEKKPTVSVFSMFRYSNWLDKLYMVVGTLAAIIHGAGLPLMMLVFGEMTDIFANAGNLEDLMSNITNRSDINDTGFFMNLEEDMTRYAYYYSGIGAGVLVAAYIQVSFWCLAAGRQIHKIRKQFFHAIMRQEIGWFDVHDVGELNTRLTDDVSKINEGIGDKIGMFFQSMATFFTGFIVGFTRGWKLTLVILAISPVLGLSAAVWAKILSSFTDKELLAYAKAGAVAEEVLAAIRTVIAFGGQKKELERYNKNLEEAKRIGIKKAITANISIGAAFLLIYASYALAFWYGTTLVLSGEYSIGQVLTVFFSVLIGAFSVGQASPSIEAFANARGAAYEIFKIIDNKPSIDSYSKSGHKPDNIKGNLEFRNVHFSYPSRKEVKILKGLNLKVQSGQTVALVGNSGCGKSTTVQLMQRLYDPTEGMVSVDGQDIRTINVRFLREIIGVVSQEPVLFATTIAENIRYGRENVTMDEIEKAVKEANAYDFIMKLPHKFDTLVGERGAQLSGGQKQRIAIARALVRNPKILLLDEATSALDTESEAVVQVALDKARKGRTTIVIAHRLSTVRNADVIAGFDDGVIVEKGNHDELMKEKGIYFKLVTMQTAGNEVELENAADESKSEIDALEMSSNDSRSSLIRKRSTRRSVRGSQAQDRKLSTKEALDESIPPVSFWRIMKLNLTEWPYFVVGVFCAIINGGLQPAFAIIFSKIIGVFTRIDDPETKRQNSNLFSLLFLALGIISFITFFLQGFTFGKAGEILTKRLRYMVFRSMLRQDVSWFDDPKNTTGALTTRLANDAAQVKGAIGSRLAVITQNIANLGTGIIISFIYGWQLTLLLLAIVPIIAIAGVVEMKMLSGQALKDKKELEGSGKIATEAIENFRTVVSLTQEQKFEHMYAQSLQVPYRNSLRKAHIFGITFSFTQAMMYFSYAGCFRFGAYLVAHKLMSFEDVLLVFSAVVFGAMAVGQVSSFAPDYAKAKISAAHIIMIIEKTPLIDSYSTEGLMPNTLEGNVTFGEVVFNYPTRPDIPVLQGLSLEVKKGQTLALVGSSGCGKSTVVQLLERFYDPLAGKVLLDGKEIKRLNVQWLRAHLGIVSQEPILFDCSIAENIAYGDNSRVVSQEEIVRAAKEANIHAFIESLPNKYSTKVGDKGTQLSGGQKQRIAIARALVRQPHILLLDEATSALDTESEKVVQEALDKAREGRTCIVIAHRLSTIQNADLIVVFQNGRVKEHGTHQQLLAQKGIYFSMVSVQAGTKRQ

In the case of `C[C@H]1O[C@@H](O[C@H]2[C@@H](O)C[C@H](O[C@H]3[C@@H](O)C[C@H](O[C@H]4CC[C@@]5(C)[C@H](CC[C@@H]6[C@@H]5C[C@@H](O)[C@]5(C)[C@@H](C7=CC(=O)OC7)CC[C@]65O)C4)O[C@@H]3C)O[C@@H]2C)C[C@H](O)[C@@H]1O` [Digoxin, digoxin], the CL renal (P-gp [1]) is reported as 121 mL/min, the CL renal (P-gp [1]; 0.5 mg) is reported as 128 mL/min and the “Increase of AUC with tezacaftor/ivacaftor” value (P-gp [1]; [14]) is reported as 30%. For the same compound, the “Increase of Cmax with tezacaftor/ivacaftor” value (P-gp [1]; [14]) was 32%.
For `CC(C)(C)c1cc(C(C)(C)CO)c(O)cc1NC(=O)c1c[nH]c2ccccc2c1=O` [M1‐IVA], the “Increase of AUC with itraconazole” value (CYP3A [2]) was 3.6 fold, the “Increase of Cmax (GLSM ratio) with itraconazole” value (“Increase of Cmax (GLSM ratio)” below) (CYP3A [2]) was 1.8 fold and the “GLSM ratio range for AUC and Cmax with/without ciprofloxacin” value (CYP3A [3]) was 0.96−1.10. The “Pharmacological activity/potency relative to parent” value (CFTR) was “approximately one sixth the potency of ivacaftor”.
With `CC1(C)c2cc3cc(NC(=O)C4(c5ccc6c(c5)OC(F)(F)O6)CC4)c(F)cc3n2CC(CO)OC1O` (centres unmarked) [M1‐TEZ] the “Decrease of AUC with itraconazole” value (CYP3A [2]) was ~ 40%, the “Decrease of Cmax with itraconazole” value (CYP3A [2]) was ~ 40% and the “GLSM ratio range for AUC and Cmax with/without ciprofloxacin” value (CYP3A [3]) was 1.17–1.25.
In the case of `CC(C)(C)c1cc(C(C)(C)C(=O)O)c(O)cc1NC(=O)c1c[nH]c2ccccc2c1=O` [M6‐IVA], the “Decrease of AUC with itraconazole” value (CYP3A [2]) is listed as 30%, the “GLSM ratio range for AUC and Cmax with/without ciprofloxacin” value (CYP3A [3]) is listed as 0.96−1.10 and the “Pharmacological activity/potency relative to parent” value (CFTR) is listed as “not considered pharmacologically active”.
With `Cc1ncc2n1-c1ccc(Cl)cc1C(c1ccccc1F)=NC2` [Midazolam, midazolam] the “Effect of TEZ/IVA on PK” value (CYP3A [4]) was “↔”, the “GLSM ratio (90% CI) with/without TEZ/IVA, AUC” value (CYP3A [4]) was 1.12 (1.01–1.25) and the “GLSM ratio (90% CI) with/without TEZ/IVA, Cmax” value (CYP3A [4]) was 1.13 (1.01–1.25). For the same compound, the “Increase of exposure with ivacaftor alone” value (CYP3A [5]; midazolam coadministered with ivacaftor alone) was 50%.
In the case of `CC(C)(C)c1cc(C(C)(C)C)c(NC(=O)c2c[nH]c3ccccc3c2=O)cc1O` [ivacaftor], the “Increase of AUC with itraconazole” value (CYP3A [2]) is reported as 15.6 fold, the “Increase of Cmax (GLSM ratio)” value (CYP3A [2]) is reported as 8.6 fold and the half-life [6] is reported as 9.3 h. The “Eliminated in the feces after metabolic conversion” value ([7]; oral ivacaftor) was 87.8%, the “Urinary excretion as unchanged drug” value ([7]; oral ivacaftor) was “negligible” and the “Total radioactivity recovered in the urine” value ([7]; oral ivacaftor, ivacaftor and its metabolites) was 6.6%. For the same compound, the “Food effect on exposure” value [8] was “increased threefold”, the “Potential for causing DDIs via CYP3A inhibition or induction” value (CYP3A [9]) was “low potential” and the “P‐gp inhibition in vitro” value [10] was “P‐gp inhibitor in vitro”. For the same compound, the “CYP3A inhibition, clinical data” value (CYP3A [5]; ivacaftor alone) was “weak inhibitor of CYP3A”, the “P‐gp inhibition, clinical study” value (P-gp [11]) was “weak inhibitor of P‐gp; also recorded: mild P‐gp inhibitor” and the “Decrease in exposure with lumacaftor” value (CYP3A [12]; ivacaftor administered with lumacaftor) was ~ 80%. The “Metabolic pathway in vitro” value (CYP3A [13]) was “primarily metabolized via CYP3A‐mediated oxidation”.
For `Cc1ccc(NC(=O)C2(c3ccc4c(c3)OC(F)(F)O4)CC2)nc1-c1cccc(C(=O)O)c1` [lumacaftor, reference compound], the CYP3A induction (CYP3A [12]) is given as “strong inducer of CYP3A”.
With `CC(C)(CO)c1cc2cc(NC(=O)C3(c4ccc5c(c4)OC(F)(F)O5)CC3)c(F)cc2n1C[C@@H](O)CO` [tezacaftor] the “Increase of AUC with itraconazole” value (CYP3A [2]) was 4 fold, the “Increase of Cmax (GLSM ratio)” value (CYP3A [2]) was 2.8 fold and the half-life [6] was ~156 h. The “Administered dose excreted in urine as unchanged drug” value ([7]; oral 14C‐tezacaftor) was “Less than 1%”, the “Dose recovered in urine” value ([7]; oral 14C‐tezacaftor, mostly as the M2 metabolite) was “about 14%” and the “Dose excreted in the feces” value ([7]; oral 14C‐tezacaftor, unchanged or as the M2 metabolite) was 72%. The Mean overall recovery ([7]; oral 14C‐tezacaftor, up to 21 days after the dose) was 86%, the “Dose proportionality of exposure” value ([8]; doses ranging from 10−300 mg) was “approximately dose‐proportional” and the “Food effect on exposure” value [8] was “no food effect”. The “Potential for causing DDIs via CYP3A inhibition or induction” value (CYP3A [9]) was “low potential”, the “P‐gp inhibition in vitro” value [10] was “not an inhibitor” and the “Metabolic pathway in vitro” value (CYP3A [13]) was “primarily metabolized via CYP3A‐mediated oxidation; also recorded: direct glucuronidation as a minor metabolic pathway”.
